From ChEMBL document CHEMBL1201862, “PubChem BioAssay data set” (2004) come the findings set out here.

Activity calls are given as the source filed them.

Test [1] concerns the target Protein disulfide-isomerase (Homo sapiens, UniProt P07237). Put plainly: PDI inhibitors, insulin aggregation turbidity, dose response, biochemical, absorbance, cherry-picked samples (AID 602350). The format is functional.
A short description of test [2]: viability loss in Mcl1-dependent HMC-1-8 cells, dose response, selectivity assay for A1 inhibitor project, cell-based, luminescence, dry powder (AID 504415). The format is functional. To be noted: Homo sapiens.
Test [3] is described as follows: Shn3 3'UTR reporter inhibitors, dose response, cell-based, Clone20 osteoblasts, firefly luciferase, cherry-picked (AID 624132).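 Note: firefly luciferase luminescence from reporter carrying the Shn3 3'UTR in osteoblasts.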 The format is functional.
The nature of test [4]: inhibitors of PGC1a acetylation in cells, dose response, cell-based, cherry-picked samples (AID 720514).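 Note: potency may reflect raised or lowered acetylation signal.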 Type of test: functional.
Test [5] concerns BJ. Description: cells. The format is functional, cell-based. Particulars: Homo sapiens.
Test [6] can be described thus: Luminescence Cell-Based Dose Response HTS to Identify Inhibitors of 5'UTR Stem-Loop Driven Prion Protein mRNA Translation in H4 Neuroglioblastoma Cells. [Related pubchem assays: 1827 (Project Summary), 1813 (Primary HTS)]. The format is functional.
A short description of test [7]: inhibitors of firefly luciferase expression or activity, dose response, H4 neuroglioma cells, luminescence (AID 1990). Type of test: functional, cell-based.
The test system of a further test is HEK293. Put plainly: inhibitors of LMP1-driven NF-kB reporter, dose response, cell-based, HEK293, luciferase, cherry-pick (AID 588343). The format is functional. Particulars: Homo sapiens.
The nature of test [8]: control 3'UTR Renilla luciferase suppression, dose response, counter-screen for Shn3 inhibitor project, cell-based, Clone20-Shn3RL, cherry-picked (AID 624133). Type of test: functional.
Test [9] has as its target T1, Apoptotic protease-activating factor 1 (Homo sapiens, UniProt O14727).
T1 sequence (O14727 whole entry): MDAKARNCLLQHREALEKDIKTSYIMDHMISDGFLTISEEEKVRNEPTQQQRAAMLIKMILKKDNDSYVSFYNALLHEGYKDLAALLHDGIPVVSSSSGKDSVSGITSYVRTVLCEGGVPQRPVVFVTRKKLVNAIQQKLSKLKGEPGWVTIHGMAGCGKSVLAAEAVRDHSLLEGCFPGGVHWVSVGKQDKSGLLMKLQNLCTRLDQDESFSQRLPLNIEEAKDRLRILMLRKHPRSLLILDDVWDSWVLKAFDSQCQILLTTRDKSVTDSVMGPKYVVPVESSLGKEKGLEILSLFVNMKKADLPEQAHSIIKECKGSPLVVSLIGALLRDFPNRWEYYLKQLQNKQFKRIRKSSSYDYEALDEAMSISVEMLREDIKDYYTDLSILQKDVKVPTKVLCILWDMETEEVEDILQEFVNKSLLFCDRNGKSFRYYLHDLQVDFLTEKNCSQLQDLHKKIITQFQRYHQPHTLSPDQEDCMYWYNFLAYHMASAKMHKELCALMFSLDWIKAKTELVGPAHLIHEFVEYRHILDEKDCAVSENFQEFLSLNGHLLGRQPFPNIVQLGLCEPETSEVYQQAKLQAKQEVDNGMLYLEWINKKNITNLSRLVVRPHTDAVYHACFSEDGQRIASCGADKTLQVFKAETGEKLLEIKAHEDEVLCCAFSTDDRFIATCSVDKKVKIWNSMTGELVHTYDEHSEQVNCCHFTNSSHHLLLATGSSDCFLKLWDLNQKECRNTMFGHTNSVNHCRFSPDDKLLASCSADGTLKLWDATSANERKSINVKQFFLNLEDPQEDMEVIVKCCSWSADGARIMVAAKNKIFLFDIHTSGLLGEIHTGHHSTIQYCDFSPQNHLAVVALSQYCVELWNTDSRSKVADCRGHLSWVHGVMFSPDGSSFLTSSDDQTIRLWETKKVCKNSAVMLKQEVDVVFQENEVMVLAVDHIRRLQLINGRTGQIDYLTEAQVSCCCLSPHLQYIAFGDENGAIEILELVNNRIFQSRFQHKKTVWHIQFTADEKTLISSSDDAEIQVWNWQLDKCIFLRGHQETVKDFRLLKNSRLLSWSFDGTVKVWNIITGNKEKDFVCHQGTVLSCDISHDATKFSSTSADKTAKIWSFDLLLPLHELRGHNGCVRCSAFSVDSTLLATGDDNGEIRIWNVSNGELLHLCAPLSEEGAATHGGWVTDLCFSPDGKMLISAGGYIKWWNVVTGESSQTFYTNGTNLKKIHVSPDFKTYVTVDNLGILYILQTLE
Type of test: functional.

The subject of another test is Vero. Description: host cell cytotoxicity of antiviral hits, dose response, cytotoxicity control for West Nile virus antiviral project, secondary assay (AID 1650). The format is functional. To be noted: Chlorocebus sabaeus.
Test [10] concerns BJ. Description: cytotoxicity toward BJ-TERT-LT-ST fibroblasts, dose response, cell-based, RAS-independent, luminescence (AID 1935).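 Note: BJ fibroblasts immortalized with TERT plus LT and ST oncogenes.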 The format is functional. To be noted: Homo sapiens.
The nature of test [11]: cytotoxicity toward DRD oncogenic fibroblasts, dose response, cell-based, non-viral oncogenic, luminescence (AID 1934). Type of test: functional. Particulars: Homo sapiens.
The test system of test [12] is BJ. Put plainly: cytotoxicity toward Ras-transformed BJeLR fibroblasts, dose response, cell-based, alamar blue fluorescence, cherrypicked samples (AID 2631).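 Note: confirmatory dose-response assay in RAS-dependent BJ fibroblasts engineered with TERT, LT and ST, with cytotoxicity read by fluorescence.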 Type of test: functional. To be noted: Homo sapiens.
A short description of test [13]: inhibitors of SNCA 5'UTR-driven reporter translation, confirmation, H4 neuroglioma cells, luminescence (AID 1988). The format is functional, cell-based.
Test [14] relates to BJ. Description: cytotoxicity toward BJ-TERT fibroblasts, dose response, cell-based, RAS-independent, luminescence (AID 1933). The format is functional. Particulars: Homo sapiens.
The target of test [15] is Mothers against decapentaplegic homolog 3 (Homo sapiens, UniProt P84022). Description: SMAD3 transcription factor inhibitors, dose response (AID 715). The format is functional.
Chain of Mothers against decapentaplegic homolog 3 (P84022 whole entry): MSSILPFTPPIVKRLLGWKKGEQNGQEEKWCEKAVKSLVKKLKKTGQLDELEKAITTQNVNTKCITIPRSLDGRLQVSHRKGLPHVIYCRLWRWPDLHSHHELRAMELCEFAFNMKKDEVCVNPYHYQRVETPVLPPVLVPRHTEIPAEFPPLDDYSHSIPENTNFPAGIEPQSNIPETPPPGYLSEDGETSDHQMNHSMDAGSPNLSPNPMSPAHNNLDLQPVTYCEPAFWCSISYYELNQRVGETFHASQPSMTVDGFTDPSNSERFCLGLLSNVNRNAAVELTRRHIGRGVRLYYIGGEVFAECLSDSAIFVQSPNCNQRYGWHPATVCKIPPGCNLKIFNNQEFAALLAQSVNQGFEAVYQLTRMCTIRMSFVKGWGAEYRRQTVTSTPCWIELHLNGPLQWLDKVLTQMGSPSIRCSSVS
In test [16] the target is Latent membrane protein 1 (Human herpesvirus 4 (strain B95-8), UniProt P03230). Put plainly: TES1-eGFP NF-kB reporter inhibition versus Tet-On dsRED, dose response, selectivity assay for LMP1 NF-kB inhibitor project, imaging, HEK293T, dual-color eGFP/dsRED, cherry-picks (AID 588398). The format is functional, cell-based.
Chain of Latent membrane protein 1 (P03230 whole entry): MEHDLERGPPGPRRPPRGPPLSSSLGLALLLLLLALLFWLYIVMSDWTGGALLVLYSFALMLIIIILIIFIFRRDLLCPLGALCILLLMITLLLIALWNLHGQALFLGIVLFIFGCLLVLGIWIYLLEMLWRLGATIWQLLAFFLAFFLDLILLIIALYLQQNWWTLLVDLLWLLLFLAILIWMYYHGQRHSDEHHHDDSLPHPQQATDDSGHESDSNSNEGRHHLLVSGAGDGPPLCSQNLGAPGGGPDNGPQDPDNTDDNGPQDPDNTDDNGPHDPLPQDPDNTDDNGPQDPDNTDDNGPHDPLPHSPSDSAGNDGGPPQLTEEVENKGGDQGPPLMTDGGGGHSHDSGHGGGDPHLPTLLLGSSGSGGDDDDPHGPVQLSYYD
Test [17] is described as follows: HepG2 cell cytotoxicity, dose response, cytotoxicity control for Shn3 inhibitor project, CellTiter-Glo, cherry-picked (AID 624134). Type of test: functional, cell-based.
Test [18] is described as follows: Counterscreen for antagonists of the orexin 1 receptor (OX1R; HCRTR1): Fluorescence-based cell-based high throughput dose response assay to identify antagonists of the parental CHO cell line. [Related pubchem assays (depositor defined):AID434989, AID435008, AID463079, AID485270, AID492963, AID492964, AID492965, AID493232, AID504699, AID504701]. The format is functional.

The subject of the next test is CHO-K1. Description: Counterscreen for antagonists of the orexin 1 receptor (OX1R; HCRTR1): Homogeneous time resolved fluorescence (HTRF)-based cell-based dose response assay to identify antagonists of the parental CHO-K1 cell line. [Related pubchem assays (depositor defined):AID434989, AID435008, AID463079, AID485270, AID492963, AID492964, AID492965, AID493232, AID504699, AID504701]. The format is functional. To be noted: Cricetulus griseus.

For test [19], the target named is T2, Orexin/Hypocretin receptor type 1 (Homo sapiens, UniProt O43613). Description: Homogeneous Time Resolved Fluorescence (HTRF)-based cell-based high throughput dose response assay for antagonists of the orexin 1 receptor (OX1R; HCRTR1). [Related pubchem assays (depositor defined):AID434989, AID435008, AID463079, AID485270, AID492963, AID492964, AID492965, AID493232, AID504717, AID504718]. Type of test: functional.
T2 sequence (O43613 whole entry): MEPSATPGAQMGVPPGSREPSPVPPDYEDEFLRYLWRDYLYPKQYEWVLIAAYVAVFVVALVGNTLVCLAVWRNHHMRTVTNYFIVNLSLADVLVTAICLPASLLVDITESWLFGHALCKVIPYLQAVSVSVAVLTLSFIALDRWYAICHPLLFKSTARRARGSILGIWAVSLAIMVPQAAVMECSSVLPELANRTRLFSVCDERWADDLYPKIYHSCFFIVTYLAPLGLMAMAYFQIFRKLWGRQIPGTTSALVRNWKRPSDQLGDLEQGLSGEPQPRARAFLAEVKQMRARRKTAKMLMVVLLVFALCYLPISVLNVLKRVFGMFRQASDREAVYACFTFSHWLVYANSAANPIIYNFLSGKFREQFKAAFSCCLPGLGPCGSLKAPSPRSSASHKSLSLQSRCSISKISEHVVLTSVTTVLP

For test [20], the target named is T2, Orexin/Hypocretin receptor type 1. Put plainly: Fluorescence-based cell-based high throughput dose response assay for antagonists of the orexin 1 receptor (OX1R; HCRTR1). [Related pubchem assays (depositor defined):AID434989, AID435008, AID463079, AID485270, AID492963, AID492964, AID492965, AID493232, AID504717, AID504718]. Type of test: functional.
The target in test [21] is T3, Orexin receptor type 2 (Homo sapiens, UniProt O43614). Description: Counterscreen assay for antagonists of the orexin 1 receptor (OX1R; HCRTR1): Homogeneous Time Resolved Fluorescence (HTRF)-based cell-based dose response assay for antagonists of the orexin 2 receptor (OX2R; HCRTR2), run by assay provider. Type of test: functional.
T3 sequence (O43614 whole entry): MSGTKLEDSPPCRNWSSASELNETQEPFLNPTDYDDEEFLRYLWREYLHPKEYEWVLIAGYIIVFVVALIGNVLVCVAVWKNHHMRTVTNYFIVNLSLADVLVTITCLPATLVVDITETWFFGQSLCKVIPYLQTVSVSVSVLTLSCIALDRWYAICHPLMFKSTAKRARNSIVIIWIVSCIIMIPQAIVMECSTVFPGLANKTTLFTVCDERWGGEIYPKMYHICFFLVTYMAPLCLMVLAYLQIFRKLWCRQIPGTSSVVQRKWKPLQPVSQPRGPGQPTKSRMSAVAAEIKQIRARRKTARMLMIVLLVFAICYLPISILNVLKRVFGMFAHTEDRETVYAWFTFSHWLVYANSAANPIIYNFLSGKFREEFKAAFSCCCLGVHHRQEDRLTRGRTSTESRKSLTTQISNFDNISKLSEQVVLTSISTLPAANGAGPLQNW
The target of test [22] is T3, Orexin receptor type 2. Put plainly: Counterscreen assay for antagonists of the orexin 1 receptor (OX1R; HCRTR1): Fluorescence-based cell-based dose response assay for antagonists of the orexin 2 receptor (OX2R; HCRTR2), run by assay provider. Type of test: functional.
The nature of test [23]: A cell-based HTS for delayed death inhibitors of the malarial parasite plastid Measured in Microorganism System Using Plate Reader - 2126-02_Inhibitor_Dose_DryPowder_Activity. The format is functional, organism-based.
Test [24] can be described thus: A cell-based HTS for delayed death inhibitors of the malarial parasite plastid Measured in Microorganism System Using Plate Reader - 2126-01_Inhibitor_Dose_DryPowder_Activity. The format is functional, organism-based.
For test [25], the target named is Vascular endothelial growth factor receptor 2 (Homo sapiens, UniProt P35968). Type of test: functional.
The next test addresses Aurora kinase B (Homo sapiens, UniProt Q96GD4). The format is functional.
Test [26] addresses Sphingosine 1-phosphate receptor 2 (Homo sapiens, UniProt O95136). Description: S1P2 receptor agonists, human, late-stage follow-up, counter-screen for S1P4 agonist project, cell-based, fluorescence, set 2 (AID 504873). The format is functional.
Test [27] deals with Sphingosine 1-phosphate receptor 3 (Homo sapiens, UniProt Q99500). Description: Late-stage fluorescence-based dose-response cell-based counterscreen assay to identify agonists of the Sphingosine 1-Phosphate Receptor 4 (S1P4): Sphingosine 1-Phosphate Receptor 3 (S1P3) agonist assay Set 2. Type of test: functional.
Chain of Sphingosine 1-phosphate receptor 3 (Q99500 whole entry): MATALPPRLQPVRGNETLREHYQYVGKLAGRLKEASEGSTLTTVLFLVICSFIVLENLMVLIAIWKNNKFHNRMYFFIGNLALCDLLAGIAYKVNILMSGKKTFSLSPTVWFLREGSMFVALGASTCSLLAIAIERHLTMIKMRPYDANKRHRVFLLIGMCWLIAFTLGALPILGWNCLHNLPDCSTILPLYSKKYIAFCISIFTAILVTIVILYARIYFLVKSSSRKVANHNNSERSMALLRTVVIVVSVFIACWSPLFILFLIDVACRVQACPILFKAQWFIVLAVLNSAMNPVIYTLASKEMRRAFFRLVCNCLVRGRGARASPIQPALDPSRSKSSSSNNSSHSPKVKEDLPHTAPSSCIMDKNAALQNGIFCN
Test [28] concerns the target Sphingosine 1-phosphate receptor 1 (Homo sapiens, UniProt P21453). Put plainly: Late-stage fluorescence-based dose-response cell-based counterscreen assay to identify agonists of the Sphingosine 1-Phosphate Receptor 4 (S1P4): Sphingosine 1-Phosphate Receptor 1 (S1P1) agonist assay Set 2. Type of test: functional.
Test [29] addresses Sphingosine 1-phosphate receptor 5 (Homo sapiens, UniProt Q9H228). Description: S1P5 receptor agonists, human, late-stage follow-up, counter-screen for S1P4 agonist project, cell-based, fluorescence, set 2 (AID 504867). Type of test: functional.

Chain of Protein disulfide-isomerase (P07237 whole entry): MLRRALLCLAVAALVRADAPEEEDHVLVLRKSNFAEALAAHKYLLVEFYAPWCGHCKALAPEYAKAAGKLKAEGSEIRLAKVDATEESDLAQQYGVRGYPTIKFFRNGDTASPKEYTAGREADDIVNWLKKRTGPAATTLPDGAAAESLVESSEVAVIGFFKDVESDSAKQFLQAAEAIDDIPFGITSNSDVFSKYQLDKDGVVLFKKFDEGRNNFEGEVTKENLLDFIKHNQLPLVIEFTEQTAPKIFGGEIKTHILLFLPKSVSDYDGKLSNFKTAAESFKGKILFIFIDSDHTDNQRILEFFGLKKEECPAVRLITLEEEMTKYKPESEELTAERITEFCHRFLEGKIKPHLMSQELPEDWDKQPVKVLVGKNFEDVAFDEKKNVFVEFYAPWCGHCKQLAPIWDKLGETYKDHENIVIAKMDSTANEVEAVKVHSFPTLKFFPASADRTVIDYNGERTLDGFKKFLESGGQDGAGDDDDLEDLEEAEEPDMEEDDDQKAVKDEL
Chain of Sphingosine 1-phosphate receptor 5 (Q9H228 whole entry): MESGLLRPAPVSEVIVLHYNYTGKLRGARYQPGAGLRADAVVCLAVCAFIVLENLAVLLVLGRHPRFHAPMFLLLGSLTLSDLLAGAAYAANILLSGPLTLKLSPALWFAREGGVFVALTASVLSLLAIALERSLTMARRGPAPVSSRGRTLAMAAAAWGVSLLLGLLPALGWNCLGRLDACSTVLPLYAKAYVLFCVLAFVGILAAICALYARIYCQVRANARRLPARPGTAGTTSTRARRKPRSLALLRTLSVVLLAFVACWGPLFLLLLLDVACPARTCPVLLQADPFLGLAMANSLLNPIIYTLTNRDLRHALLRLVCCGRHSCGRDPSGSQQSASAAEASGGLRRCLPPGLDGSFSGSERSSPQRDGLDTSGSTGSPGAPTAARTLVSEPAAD
Chain of Aurora kinase B (Q96GD4 whole entry): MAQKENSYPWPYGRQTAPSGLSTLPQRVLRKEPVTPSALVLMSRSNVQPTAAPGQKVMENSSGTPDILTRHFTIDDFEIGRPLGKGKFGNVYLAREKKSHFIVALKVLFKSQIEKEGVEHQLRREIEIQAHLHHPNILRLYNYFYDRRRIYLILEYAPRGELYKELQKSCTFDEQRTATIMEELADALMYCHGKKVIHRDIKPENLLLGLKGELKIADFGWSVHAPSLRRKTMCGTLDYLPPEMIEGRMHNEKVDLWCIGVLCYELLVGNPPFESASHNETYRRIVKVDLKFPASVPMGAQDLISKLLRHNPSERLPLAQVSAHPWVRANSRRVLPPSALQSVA
Chain of Sphingosine 1-phosphate receptor 2 (O95136 whole entry): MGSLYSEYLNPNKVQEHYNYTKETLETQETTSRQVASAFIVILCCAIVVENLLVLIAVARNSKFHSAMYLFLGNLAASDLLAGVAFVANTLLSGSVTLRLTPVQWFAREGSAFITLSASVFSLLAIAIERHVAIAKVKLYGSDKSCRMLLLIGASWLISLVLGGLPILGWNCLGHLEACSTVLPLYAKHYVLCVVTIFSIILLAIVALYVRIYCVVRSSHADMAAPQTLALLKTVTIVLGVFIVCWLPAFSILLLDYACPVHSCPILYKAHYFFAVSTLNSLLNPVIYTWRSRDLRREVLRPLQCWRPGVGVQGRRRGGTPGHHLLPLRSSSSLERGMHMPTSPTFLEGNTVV
Chain of Sphingosine 1-phosphate receptor 1 (P21453 whole entry): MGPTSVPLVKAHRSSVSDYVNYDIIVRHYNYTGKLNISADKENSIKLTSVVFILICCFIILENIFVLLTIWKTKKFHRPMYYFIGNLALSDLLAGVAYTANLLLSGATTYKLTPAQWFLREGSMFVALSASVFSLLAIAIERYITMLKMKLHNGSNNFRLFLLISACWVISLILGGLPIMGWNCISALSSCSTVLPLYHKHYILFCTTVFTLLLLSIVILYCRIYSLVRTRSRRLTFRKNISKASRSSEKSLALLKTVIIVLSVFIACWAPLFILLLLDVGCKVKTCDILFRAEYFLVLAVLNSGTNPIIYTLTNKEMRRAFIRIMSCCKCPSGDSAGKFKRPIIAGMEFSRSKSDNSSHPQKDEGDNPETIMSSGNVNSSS

For the molecule `Cc1noc(C)c1S(=O)(=O)Nc1ccc2c(c1)CC(=O)N([C@@H](C)CO)C[C@H](C)[C@H](CN(C)S(=O)(=O)c1ccc(F)cc1)O2`, in test [1], the AC50 is 19.5 µM (active).

Regarding `O=c1oc2ccccc2c(Nc2cc(Cl)cc(Cl)c2)c1[N+](=O)[O-]`, the AC50 in [2] was 31.2 µM (active).

For the molecule `CCOC(=O)c1c2c(n(C)c1C)C(=O)C(=O)c1ccc(Br)cc1-2`, the AC50 in test [3] was 1.01 µM (active); in test [4] it was 4.34 µM (active); with HEK293, 2.51 µM (active); in test [8], 1.6 µM (active); in test [16], 41.1 µM (active); in [17], 3.95 µM (active). Further, the EC50 in the test with BJ [5] is 8.06 µM (inconclusive); in [6], 8.25 µM (active); in [7], 6.23 µM (active); in the test on BJ [10] it was 5.56 µM (inconclusive); in [11] it was 5.41 µM (active); in the test with BJ [12], 0.52 µM (active). Also, the EC50 in test [13] is 3.58 µM (active); in the test with BJ [14], 4.88 µM (active). For the same molecule, the IC50 in test [9] is 0.797 µM (active); in test [15], 10.4 µM (active). Also, the cytotoxic concentration (CC50) in the test on Vero was 6.53 µM (active).

For `CC(=O)Nc1cccc(OCC(=O)NC(C)c2ccc3ccccc3c2)c1` (stereo not drawn), the IC50 in test [18] is > 49.7 µM (inactive); in the test on CHO-K1, > 66.2 µM (inactive); in test [19] it was 0.623 µM (active); in test [20], 9.01 µM (active); at Orexin receptor type 2 [21], > 50 µM (inactive); at Orexin receptor type 2 [22] it was 30 µM (inactive).

Consider `C[C@@H]1CN([C@@H](C)CO)C(=O)c2cc(NC(=O)Nc3ccccc3)ccc2O[C@@H](C)CCCCO[C@H]1CN(C)S(=O)(=O)c1ccccc1F`, for which the AC50 in [23] is 0.641 µM (active); in [24], 0.924 µM (active).

As to `COc1cc(Nc2ncnc(Nc3cc[nH]n3)n2)cc(OC)c1OC`, the inhibitory constant (Ki) in test [25] is 3.98 µM (active); on Aurora kinase B, 0.316 µM (active).

Consider `C/N=C1/S/C(=C/c2cc(C)n(Cc3ccccc3)c2C)C(=O)N1C`, for which the EC50 in [26] was 3.65 µM (active); in test [27], > 25 µM (inactive); in [28], 0.72 µM (active); in test [29] it was 0.144 µM (active).
